Publication PMC12692968, “Design, Synthesis, Molecular Docking, and Anticancer Activity of Chalcone Derivatives as VEGFR-2 Inhibitors” (Molecules, 2025)

Tests used:
Format in all cases: cell-based
[1] = tested on: human chronic myeloid leukemia cell line K562; assay: CCK-8 cytotoxicity assay, K562 cells; settings: Homo sapiens, K562, 48 h, CCK-8, 48 h incubation, mean ± SD, n = 3
Method: (§1) The SiHa, K562, B16 and HK-2 cells were obtained from Wuhan Pricella Biotechnology Co., Ltd. (Wuhan, China). […] 2–5 × 10^3 cells were added to each well of a 96-well plate and incubated for 12 h, followed by the addition of the tested compounds. After incubation for 48 h, 10 μL of the CCK-8 solution was added to each well and incubated for another 2 h. The absorbance of each well was measured at 450 nm using an enzyme-linked immunosorbent assay (ELISA) reader. The experiments were replicated three times. The inhibition rate of cancer cells was calculated using the Formula (1). The half-maximal inhibitory concentration (IC50) value was calculated using GraphPad Prism 8.0 software.

[2] = tested on: mouse melanoma cell line B16; assay: CCK-8 cytotoxicity assay, B16 cells; settings: Mus musculus, B16, 48 h, CCK-8, 48 h incubation, mean ± SD, n = 3
Method: as §1

[3] = tested on: human cervical squamous cell carcinoma cell line SiHa; assay: CCK-8 cytotoxicity assay, SiHa cells; settings: Homo sapiens, SiHa; CCK-8, 48 h incubation, mean ± SD, n = 3
Method: as §1

Compound | IC50 [1] | IC50 [2] | IC50 [3]
Cc1ccc(/C=C/C(=O)c2ccc(NC(=O)Nc3ccc(Cl)c(C(F)(F)F)c3)cc2)cc1 [Compound 2g, (E)-1-(4-chloro-3-(trifluoromethyl)phenyl)-3-(4-(3-(p-tolyl)acryloyl)phenyl)urea] | 4.19 ± 0.26 µM | 7.15 ± 0.49 µM | 6.03 ± 0.38 µM
COc1ccc(/C=C/C(=O)c2ccc(NC(=O)Nc3ccc(Cl)c(C(F)(F)F)c3)cc2)cc1 [Compound 2b, (E)-1-(4-chloro-3-(trifluoromethyl)phenyl)-3-(4-(3-(4-methoxyphenyl)acryloyl)phenyl)urea] | 5.08 ± 0.31 µM | 8.32 ± 0.61 µM | 5.55 ± 0.26 µM
COc1ccc(/C=C/C(=O)c2ccc(NC(=O)Nc3ccc(Cl)c(C(F)(F)F)c3)cc2)c(OC)c1OC [Compound 2j, (E)-1-(4-chloro-3-(trifluoromethyl)phenyl)-3-(4-(3-(2,3,4-trimethoxyphenyl)acryloyl)phenyl)urea] | 2.4 ± 0.22 µM | 9.73 ± 0.98 µM | 6.62 ± 0.28 µM
O=C(Nc1ccc(C(=O)/C=C/c2cccc(Cl)c2)cc1)Nc1ccc(Cl)c(C(F)(F)F)c1 [Compound 2e, (E)-1-(4-chloro-3-(trifluoromethyl)phenyl)-3-(4-(3-(3-chlorophenyl)acryloyl)phenyl)urea] | 2.91 ± 0.17 µM | 11.3 ± 0.64 µM | 4.71 ± 0.29 µM
O=C(Nc1ccc(C(=O)/C=C/c2ccco2)cc1)Nc1ccc(Cl)c(C(F)(F)F)c1 [Compound 2m, (E)-1-(4-chloro-3-(trifluoromethyl)phenyl)-3-(4-(3-(furan-2-yl)acryloyl)phenyl)urea] | 8.95 ± 0.76 µM |  | 6.53 ± 0.24 µM
CCc1ccc(/C=C/C(=O)c2ccc(NC(=O)Nc3ccc(Cl)c(C(F)(F)F)c3)cc2)cc1 [Compound 2i, (E)-1-(4-chloro-3-(trifluoromethyl)phenyl)-3-(4-(3-(4-ethylphenyl)acryloyl)phenyl)urea] | 4.45 ± 0.53 µM | 8.66 ± 0.58 µM | 7.96 ± 0.26 µM
Cc1ccc(/C=C/C(=O)c2ccc(NC(=O)Nc3ccc(Cl)c(C(F)(F)F)c3)cc2)cc1C [Compound 2k, (E)-1-(4-chloro-3-(trifluoromethyl)phenyl)-3-(4-(3-(3,4-dimethylphenyl)acryloyl)phenyl)urea] | 1.73 ± 0.23 µM | 6.42 ± 0.54 µM | 8.35 ± 0.09 µM
O=C(Nc1ccc(C(=O)/C=C/c2ccc(O)cc2)cc1)Nc1ccc(Cl)c(C(F)(F)F)c1 [Compound 2s, (E)-1-(4-chloro-3-(trifluoromethyl)phenyl)-3-(4-(3-(4-hydroxyphenyl)acryloyl)phenyl)urea] | 6.47 ± 0.36 µM | 4.29 ± 0.52 µM | 8.96 ± 0.03 µM
O=C(Nc1ccc(C(=O)/C=C/c2ccc(Cl)cc2)cc1)Nc1ccc(Cl)c(C(F)(F)F)c1 [Compound 2d, (E)-1-(4-chloro-3-(trifluoromethyl)phenyl)-3-(4-(3-(4-chlorophenyl)acryloyl)phenyl)urea] | 8.41 ± 0.57 µM | 12.8 ± 0.84 µM | 4.78 ± 0.14 µM
O=C(Nc1ccc(C(=O)C=Cc2ccccc2)cc1)Nc1ccc(Cl)c(C(F)(F)F)c1 [Compound 2a, 1-(4-chloro-3-(trifluoromethyl)phenyl)-3-(4-cinnamoylphenyl)urea] | 12.7 ± 0.45 µM | 10.7 ± 0.78 µM | 4.43 ± 0.16 µM
